Reference: patent US20160220569A1, “CDK4/6 Inhibitor Dosage Formulations For The Protection Of Hematopoietic Stem And Progenitor Cells During Chemotherapy” (G1 Therapeutics, Inc., priority 2015, published 2016)
Like-named read-outs stand apart in the source and are kept apart here.

Assay: 14-day oral gavage toxicokinetic study in rats
Assay type: in vivo
Conditions: rat, plasma, po; for concentration at 0.5 h / concentration at 1 h / concentration at 2 h / concentration at 4 h / concentration at 8 h / concentration at 12 h / concentration at 24 h / concentration at […]: rats; for concentration at 1 h: Day 14, 1 h; for concentration at 24 h: Day 14, 24 h; for half-life: read-out: t½ (converted)
Experimental: Plasma was obtained from blood samples collected from rats in a composite sampling scheme, with 3 samples collected per sex, per dose, at each target collection time, as illustrated in Table 21 to Table 25. Samples were collected from the vehicle control group on Day 1 and Day 14 at 3 hour after administration. […] Blood samples were collected in tubes containing K3EDTA as an anticoagulant and placed on ice until processed to plasma via centrifugation. Samples were stored frozen at −80° C. until shipment to the bioanalytical laboratory for analysis.
The following parameters were determined:
Cmax: Maximum observed plasma concentration (ng/mL).
A value of 0 ng/mL was assigned to all values below the lower limit of quantitation (BLQ, <10.0 ng/mL).
AUC(0-inf): Area under the plasma concentration vs. time curve extrapolated from 0 to infinity (ng*h/mL), calculated as AUC(0-t)+AUC(t-inf) where AUC(t-inf) is calculated as last measurable concentration (CLast) divided by ke, where ke is the elimination rate constant determined by linear regression of the last three analytically measured points on the log plasma concentration vs. time curve. The selection criteria of the data points for inclusion in the calculation of ke required that at least three data points representing the terminal phase (after Tmax) were regressed and that R2≧0.850 when rounded.
CL: Clearance (L/h/kg), calculated as the dose divided by AUC(0-t).
Vd: Volume of distribution (L/kg), calculated as dose divided by the product of ke and AUC(0-inf).
Vdss: Steady state volume of distribution (L/kg), calculated as clearance […] mean residence time, where mean residence time is calculated as the area under the first moment curve divided by AUC(0-t).
t½: Elimination half-life (h), calculated as ln(2)/ke, where ke is the elimination rate constant determined by linear regression. Half-life was defined as not determined if regression criteria (specified in AUC(0-inf) above) were not met.
Cmax/Dose: Normalized Cmax, calculated as Cmax divided by total dose.
AUC/Dose: Normalized AUC, calculated as AUC(0-t) divided by total dose.
ii. Statistical Analysis Mean and standard deviation (SD) were calculated in Watson. Values of BLQ were assigned a value of 0 ng/mL for mean calculations. Concentration values and derived TK parameters were reported to three significant figures.

[1] = both sexes, 15 mg/kg, Mean Compound 1 Plasma Concentration, oral 15 mg/kg, Overall
[2] = both sexes, 15 mg/kg, oral 15 mg/kg, Study Day 1, Overall
[3] = both sexes, 15 mg/kg, oral 15 mg/kg, Study Day 14, Overall
[4] = both sexes, 30 mg/kg, Mean Compound 1 Plasma Concentration, oral 30 mg/kg, Overall
[5] = both sexes, 30 mg/kg, oral 30 mg/kg, Study Day 1, Overall
[6] = both sexes, 30 mg/kg, oral 30 mg/kg, Study Day 14, Overall
[7] = female, 2 mg/kg, Compound 1 Plasma Concentration, Female, daily oral 2 mg/kg (Group 7), individual animals

## CN1CCN(c2ccc(Nc3ncc4cc5n(c4n3)C3(CCCCC3)CNC5=O)nc2)CC1 [Compound 1, 2′-((5-(4-methylpiperazin-1-yl)pyridin-2-yl)amino)-7′,8′-dihydro-6′H-spiro[cyclohexane-1,9′-pyrazino[1′,2′:1,5]pyrrolo[2,3-d]pyrimidin]-6′-one]
Both sexes, 15 mg/kg, Mean Compound 1 Plasma Concentration, oral 15 mg/kg, Day 14, 0.5 h, Overall
  concentration at 0.5 h: 955 ng/mL
[1]
  concentration at 1 h: 1150 ng/mL
  concentration at 24 h: 95.3 ng/mL
Both sexes, 15 mg/kg, Mean Compound 1 Plasma Concentration, oral 15 mg/kg, Day 14, 2 h, Overall
  concentration at 2 h: 1410 ng/mL
Both sexes, 15 mg/kg, Mean Compound 1 Plasma Concentration, oral 15 mg/kg, Day 14, 4 h, Overall
  concentration at 4 h: 1330 ng/mL
Both sexes, 15 mg/kg, Mean Compound 1 Plasma Concentration, oral 15 mg/kg, Day 14, 8 h, Overall
  concentration at 8 h: 1070 ng/mL
Both sexes, 15 mg/kg, Mean Compound 1 Plasma Concentration, oral 15 mg/kg, Day 14, 12 h, Overall
  concentration at 12 h: 715 ng/mL
[2]
  AUC(0-inf): 19900 ng·h/mL
  AUC(0-t): 19400 ng·h/mL
  Cmax: 1490 ng/mL
  Tmax: 2 h
  half-life: 4.05 h
[3]
  AUC(0-inf): 18700 ng·h/mL
  AUC(0-t): 18100 ng·h/mL
  Cmax: 1410 ng/mL
  Tmax: 2 h
  half-life: 4.47 h
Both sexes, 30 mg/kg, Mean Compound 1 Plasma Concentration, oral 30 mg/kg, Day 1, 0.5 h, Overall
  concentration at 0.5 h: 1790 ng/mL
Both sexes, 30 mg/kg, Mean Compound 1 Plasma Concentration, oral 30 mg/kg, Day 1, 2 h, Overall
  concentration at 2 h: 2360 ng/mL
Both sexes, 30 mg/kg, Mean Compound 1 Plasma Concentration, oral 30 mg/kg, Day 1, 4 h, Overall
  concentration at 4 h: 2380 ng/mL
Both sexes, 30 mg/kg, Mean Compound 1 Plasma Concentration, oral 30 mg/kg, Day 1, 8 h, Overall
  concentration at 8 h: 2160 ng/mL
Both sexes, 30 mg/kg, Mean Compound 1 Plasma Concentration, oral 30 mg/kg, Day 1, 12 h, Overall
  concentration at 12 h: 1800 ng/mL
Both sexes, 30 mg/kg, Mean Compound 1 Plasma Concentration, oral 30 mg/kg, Day 14, 0.5 h, Overall
  concentration at 0.5 h: 1270 ng/mL
[4]
  concentration at 1 h: 1880 ng/mL
  concentration at 24 h: 263 ng/mL
Both sexes, 30 mg/kg, Mean Compound 1 Plasma Concentration, oral 30 mg/kg, Day 14, 2 h, Overall
  concentration at 2 h: 1800 ng/mL
Both sexes, 30 mg/kg, Mean Compound 1 Plasma Concentration, oral 30 mg/kg, Day 14, 4 h, Overall
  concentration at 4 h: 2180 ng/mL
Both sexes, 30 mg/kg, Mean Compound 1 Plasma Concentration, oral 30 mg/kg, Day 14, 8 h, Overall
  concentration at 8 h: 1920 ng/mL
Both sexes, 30 mg/kg, Mean Compound 1 Plasma Concentration, oral 30 mg/kg, Day 14, 12 h, Overall
  concentration at 12 h: 1800 ng/mL
[5]
  AUC(0-inf): 39400 ng·h/mL
  AUC(0-t): 37500 ng·h/mL
  Cmax: 2380 ng/mL
  Tmax: 4 h
  half-life: 4.98 h
[6]
  AUC(0-inf): 37000 ng·h/mL
  AUC(0-t): 35000 ng·h/mL
  Cmax: 2180 ng/mL
  Tmax: 4 h
  half-life: 5.23 h
both, 2 mg/kg, Mean Compound 1 Plasma Concentration, oral 2 mg/kg, Day 14, […], Overall
  concentration at […]: 4 ng/mL
both, 5 mg/kg, Mean Compound 1 Plasma Concentration, oral 5 mg/kg, Day 1, […], Overall
  concentration at […]: 20.8 ng/mL
both, 5 mg/kg, Mean Compound 1 Plasma Concentration, oral 5 mg/kg, Day 14, […], Overall
  concentration at […]: 49 ng/mL
both, 15 mg/kg, Mean Compound 1 Plasma Concentration, oral 15 mg/kg, Day 1, […], Overall
  concentration at […]: 72.5 ng/mL
both, 15 mg/kg, Mean Compound 1 Plasma Concentration, oral 15 mg/kg, Day 14, […], Overall
  concentration at […]: 119 ng/mL
both, 30 mg/kg, Mean Compound 1 Plasma Concentration, oral 30 mg/kg, Day 1, […], Overall
  concentration at […]: 150 ng/mL
both, 30 mg/kg, Mean Compound 1 Plasma Concentration, oral 30 mg/kg, Day 14, […], Overall
  concentration at […]: 372 ng/mL
female, 2 mg/kg, Compound 1 Plasma Concentration, Female, Day 1, 0.5 h, daily oral 2 mg/kg (Group 7), individual animals
  concentration at 0.5 h: 139 ng/mL
female, 2 mg/kg, Compound 1 Plasma Concentration, Female, Day 1, 2 h, daily oral 2 mg/kg (Group 7), individual animals
  concentration at 2 h: 216 ng/mL
female, 2 mg/kg, Compound 1 Plasma Concentration, Female, Day 1, 12 h, daily oral 2 mg/kg (Group 7), individual animals
  concentration at 12 h: 91.8 ng/mL
female, 2 mg/kg, Compound 1 Plasma Concentration, Female, Day 14, 0.5 h, daily oral 2 mg/kg (Group 7), individual animals
  concentration at 0.5 h: 192 ng/mL
[7]
  concentration at 1 h: 108 ng/mL
  concentration at 24 h: 21.6 ng/mL
female, 2 mg/kg, Compound 1 Plasma Concentration, Female, Day 14, 2 h, daily oral 2 mg/kg (Group 7), individual animals
  concentration at 2 h: 224 ng/mL
female, 2 mg/kg, Compound 1 Plasma Concentration, Female, Day 14, 4 h, daily oral 2 mg/kg (Group 7), individual animals
  concentration at 4 h: 129 ng/mL
female, 2 mg/kg, Compound 1 Plasma Concentration, Female, Day 14, […], daily oral 2 mg/kg (Group 7), individual animals
  concentration at […]: 20 ng/mL
